Measured values published in patent publication US11707440B2 (priority 2017, dated 2023).
Where two headings read alike, the source gives them in different places.

Key:
[1] = test system: subjects with MDD at imminent risk for suicide; test: Beck Scale for Suicidal Ideation (BSS), […]2001; format: in vivo, human; settings: for BSS total score change, Diff. of LS Means (SE) minus placebo: ANCOVA LOCF
Description: The BSS is a 21-item self-reported instrument to detect and measure the severity of suicidal ideation in adults and adolescents aged 17 years and older. The BSS total score represents the severity of suicide ideation, and it is calculated by summing the ratings of the first 19 items; the total score ranges from 0 to 38, with a higher score representing greater suicide ideation. Increasing scores reflect increases in suicidal risk.

[2] = test system: subjects with MDD at imminent risk for suicide
[3] = Baseline(DB), predose Day 1, ITT analysis set
[4] = Day 1(DB): 4H, LOCF, ITT analysis set
[5] = Day 2(DB), LOCF, ITT analysis set
[6] = End Point(DB), LOCF, ITT analysis set
[7] = TEAE in ≥5% of subjects in any treatment group, double-blind phase, safety analysis set
[8] = TEAE leading to study discontinuation, double-blind phase, safety analysis set
[9] = adverse events, follow up phase, safety (FU) analysis set

CN[C@]1(c2ccccc2Cl)CCCCC1=O [Esketamine 84 mg]
6 (17.1%) no. subjects (%): Anxiety [2, 7] | Paresthesia [2, 7] | Sedation [2, 7]
0.0 (0; 34): BSS total score, Median (Range) [1, 6]
4 (11.4%) no. subjects (%): Euphoric mood [2, 7] | Somnolence [2, 7] | Vertigo [2, 7]
5 (14.3%) no. subjects (%): Investigations [2, 7] | Skin and subcutaneous tissue disorders [2, 7] | Total no. subjects with TEAE leading to study discontinuation [2, 8]
3 (8.6%) no. subjects (%): Agitation [2, 7] | Diarrhea [2, 7] | Dry mouth [2, 7] | Feeling abnormal [2, 7] | Hypoesthesia [2, 7] | Insomnia [2, 7] | Nasal discomfort [2, 7] | Throat irritation [2, 7] | Vision blurred [2, 7]
20 (57.1%) no. subjects (%): Psychiatric disorders [2, 7]
−10.2 (9.74): BSS total score change from baseline, Mean (SD) [1, 4]
−1.7 (2.15): BSS total score change, Diff. of LS Means (SE) minus placebo ([1]; End Point(DB))
−8.0 (−33; 8): BSS total score change from baseline, Median (Range) [1, 4]
11.1 (10.12): BSS total score, Mean (SD) [1, 5]
2 (5.7%) no. subjects (%): Acne [2, 7] | Blood pressure increased [2, 7] | Diplopia [2, 7] | Dizziness postural [2, 7] | Fatigue [2, 7] | Feeling cold [2, 7] | Hyperacusis [2, 7] | Hyperhidrosis [2, 7] | Hypoesthesia oral [2, 7] | Oropharyngeal pain [2, 7] | Paresthesia oral [2, 7] | Pharyngeal hypoesthesia [2, 7] | Suicidal ideation [2, 7] | Tinnitus [2, 7] | Weight increased [2, 7] | Nervous system disorders [2, 8] | Psychiatric disorders [2, 8]
13.0 (0; 34): BSS total score, Median (Range) [1, 5]
11 (31.4%) no. subjects (%): Dissociation [2, 7] | Dysgeusia [2, 7] | Headache [2, 7]
9 (25.7%) no. subjects (%): Ear and labyrinth disorders [2, 7] | Respiratory, thoracic and mediastinal disorders [2, 7]
−21.0 (−33; 8): BSS total score change from baseline, Median (Range) [1, 6]
0 no. subjects (%): Abdominal pain [2, 7] | Blepharospasm [2, 7] | Constipation [2, 7] | Epistaxis [2, 7] | Intranasal paranesthesia [2, 7] | Panic attack [2, 7] | Pollakiuria [2, 7] | Rhinalgia [2, 7] | Rhinorrhoea [2, 7] | Toothache [2, 7] | Upper respiratory tract infection [2, 7] | Dissociative disorder [2, 8] | Panic attack [2, 8] | Aphthous ulcer [2, 9] | Bronchitis [2, 9]
24.0 (5.45): BSS total score, Mean (SD) [1, 3]
13 (37.1%) no. subjects (%): Nausea [2, 7]
25 (71.4%) no. subjects (%): Nervous system disorders [2, 7]
−2.3 (2.29): BSS total score change, Diff. of LS Means (SE) minus placebo ([1]; Day 1(DB): 4H)
25.0 (8; 33): BSS total score, Median (Range) [1, 3]
10 (28.6%) no. subjects (%): General disorders and administration site conditions [2, 7]
1 (2.9%) no. subjects (%): Flatulence [2, 7] | Infections and infestations [2, 7] | Nasal congestion [2, 7] | Rash [2, 7] | Renal and urinary disorders [2, 7] | Aggression [2, 8] | Agitation [2, 8] | Cardiac disorders [2, 8] | Dizziness [2, 8] | Dysgeusia [2, 8] | Dyspnea [2, 8] | Gastrointestinal disorders [2, 8] | Nausea [2, 8] | Respiratory, thoracic and mediastinal disorders [2, 8] | Ventricular extrasystoles [2, 8]
7 (20.0%) no. subjects (%): Eye disorders [2, 7] | Vomiting [2, 7]
−1.9 (2.30): BSS total score change, Diff. of LS Means (SE) minus placebo ([1]; Day 2(DB))
16.5 (0; 31): BSS total score, Median (Range) [1, 4]
4.7 (9.03): BSS total score, Mean (SD) [1, 6]
1 (3.7%) no. subjects (%): Abdominal pain [2, 9] | Abdominal tenderness [2, 9] | Back pain [2, 9]
12 (34.3%) no. subjects (%): Dizziness [2, 7]
19 (54.3%) no. subjects (%): Gastrointestinal disorders [2, 7]
